{"source": "patent US20080311054A1", "about": "“Compositions and Methods to Counteract Oral Malodour” (GIVAUDAN SA, priority 2005, published 2008)", "origin": "cited, not measured here", "test_system": "microorganisms such as yeasts", "settings": "WO 99/51093"}
{"compound": "CCCCCCCCO", "note": "[octanol]", "values": [{"measurement": "effect (killing microorganisms such as yeasts)", "result": "no effect"}]}
